Among the test systems are HCC-2998 colon; NCI-H23 lung; K-562 leukemia; PC-3 prostate; BT-549 breast; SNB-75 CNS; UACC-257 melanoma; M14 melanoma; NCI-H522 lung; NCI-H226 lung; NCI/ADR-RES ovarian; HOP-92 NSCLC.
Holding throughout (assay): growth of human tumour cells (NCI), 48 h

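Five compound concentrations were applied to cells in 96-well plates for 48 hours; endpoints were derived by simple linear interpolation of the resulting dose-response curve. TGI marks complete inhibition of growth.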

In the case of `O=C(CCCNc1nc(-c2ccccc2)cs1)c1cccs1`, the TGI with HCC-2998 colon, in the assay on NCI-H23 lung, in the assay on K-562 leukemia, in the assay on PC-3 prostate, in the assay on BT-549 breast and in the assay on SNB-75 CNS was > 100 µM each time. Also, the TGI in the assay on UACC-257 melanoma, in the assay on M14 melanoma, in the assay on NCI-H522 lung, in the assay with NCI-H226 lung and with NCI/ADR-RES ovarian was > 100 µM each time.

In the case of `Cc1ccc(N=N/C(=N/NC(=O)c2cc(Cl)ccc2C(=O)c2ccccc2)c2ccc(N(CCC#N)CCC#N)cc2C)cc1`, the TGI was 43.9 µM with HCC-2998 colon; > 100 µM with NCI-H23 lung; > 100 µM with K-562 leukemia; 47.2 µM in the assay on PC-3 prostate; > 100 µM with BT-549 breast; > 100 µM in the assay on SNB-75 CNS. In addition, the TGI with UACC-257 melanoma is 39.4 µM; with M14 melanoma it was 41 µM; in the assay on NCI-H522 lung, 19.9 µM; with NCI-H226 lung it was 38 µM; with NCI/ADR-RES ovarian it was 62.1 µM.

Turning to `CCN(CC)CCN1C(=O)c2c(c(-c3ccccc3)c3ccccc3c2-c2ccccc2)C1=O`, the TGI is > 100 µM in the assay on HCC-2998 colon; > 100 µM with K-562 leukemia; > 100 µM in the assay with PC-3 prostate; 86.9 µM in the assay with HOP-92 NSCLC; > 100 µM with BT-549 breast; > 100 µM with SNB-75 CNS. Besides, the TGI with UACC-257 melanoma, with M14 melanoma, with NCI-H522 lung, with NCI-H226 lung and in the assay with NCI/ADR-RES ovarian was > 100 µM each time.

As for `COc1ccc2c(c1)/C(=C\c1c(C)nc3sc(C)cn13)C(=O)N2`, the TGI was 3.85 µM in the assay on HCC-2998 colon; > 70.7 µM in the assay on NCI-H23 lung; > 100 µM in the assay on K-562 leukemia; > 100 µM in the assay on PC-3 prostate; > 28.5 µM in the assay on HOP-92 NSCLC; 45.8 µM with BT-549 breast. Besides, the TGI was > 78.2 µM in the assay on UACC-257 melanoma; > 100 µM in the assay on M14 melanoma; 1.53 µM with NCI-H522 lung; > 87.6 µM in the assay with NCI-H226 lung; > 42.6 µM with NCI/ADR-RES ovarian.

Turning to `Cc1nc(C(N)=S)sc1C(/C=C/c1ccc(Cl)c(Cl)c1)=N/NC(C)(C)C`, the TGI with HCC-2998 colon, in the assay on NCI-H23 lung, in the assay with PC-3 prostate, in the assay with HOP-92 NSCLC, with BT-549 breast and with SNB-75 CNS was > 100 µM throughout. The TGI with UACC-257 melanoma, in the assay with NCI-H522 lung, in the assay with NCI-H226 lung and in the assay with NCI/ADR-RES ovarian was > 100 µM throughout.

Regarding `CC(=O)NNc1nc(C)c(C(/C=C/c2ccc([N+](=O)[O-])cc2)=N/NC(N)=S)s1`, the TGI in the assay on HCC-2998 colon, in the assay on NCI-H23 lung, in the assay with PC-3 prostate, in the assay on HOP-92 NSCLC, in the assay with BT-549 breast and in the assay with SNB-75 CNS was > 100 µM each time. The TGI in the assay with UACC-257 melanoma, in the assay with M14 melanoma, in the assay with NCI-H522 lung, in the assay on NCI-H226 lung and with NCI/ADR-RES ovarian was > 100 µM each time.

As for `CCOC(=O)Cc1csc2[n+]1C(=O)/C(=C\c1cccc(Cl)c1Cl)S2`, the TGI is 39.7 µM in the assay with HCC-2998 colon; 48.9 µM with NCI-H23 lung; 37.7 µM in the assay on PC-3 prostate; 26.8 µM in the assay on HOP-92 NSCLC; 49 µM in the assay on BT-549 breast; 76.6 µM in the assay on SNB-75 CNS. The TGI stood at 90.1 µM with UACC-257 melanoma; 85.1 µM with M14 melanoma; 41.3 µM in the assay on NCI-H522 lung; 32 µM with NCI-H226 lung; 33.2 µM in the assay with NCI/ADR-RES ovarian.

On to `CCOC(=O)c1sc(N/N=C2\NC(=O)/C(=C/c3ccc([N+](=O)[O-])cc3)S2)nc1C`, for which the TGI in the assay on HCC-2998 colon turned out to be 85.3 µM; with NCI-H23 lung, 80.5 µM; in the assay with PC-3 prostate, 91.4 µM; with HOP-92 NSCLC, 44.6 µM; in the assay on BT-549 breast, 74.5 µM; in the assay on SNB-75 CNS, 74.6 µM. Also, the TGI in the assay with UACC-257 melanoma is 42.1 µM; in the assay on M14 melanoma, > 100 µM; with NCI-H522 lung, 40.9 µM; in the assay with NCI-H226 lung, 55.1 µM; in the assay on NCI/ADR-RES ovarian, 66.1 µM.

Turning to `Oc1ccccc1C=Nc1ccc(-c2nc3ccccc3[nH]2)cc1`, the TGI in the assay on NCI-H23 lung was > 100 µM; in the assay on K-562 leukemia, > 100 µM; in the assay on PC-3 prostate, > 100 µM; in the assay on HOP-92 NSCLC it was > 100 µM; in the assay on BT-549 breast, 54.4 µM; in the assay with SNB-75 CNS it was > 100 µM. In addition, the TGI in the assay with UACC-257 melanoma was > 100 µM; in the assay with M14 melanoma, > 100 µM; in the assay with NCI-H522 lung, > 100 µM; with NCI-H226 lung it was > 100 µM; in the assay with NCI/ADR-RES ovarian it was 53.2 µM.

As to `C=C(C)CC1(O)C(=O)C(OCC)=C1OCC` (stereo not given), the TGI in the assay with NCI-H23 lung, with PC-3 prostate, in the assay on HOP-92 NSCLC, in the assay on BT-549 breast, with SNB-75 CNS and with UACC-257 melanoma was > 100 µM each time. The TGI with M14 melanoma, in the assay with NCI-H522 lung, with NCI-H226 lung and with NCI/ADR-RES ovarian was > 100 µM in each case.

Turning to `N#CC(=C1CCCCC1)c1nc2ccccc2o1`, the TGI is > 100 µM with HCC-2998 colon; > 100 µM in the assay with NCI-H23 lung; > 100 µM with K-562 leukemia; > 100 µM in the assay on PC-3 prostate; > 100 µM in the assay with HOP-92 NSCLC; 89.1 µM in the assay with BT-549 breast. Besides, the TGI was > 100 µM in the assay on UACC-257 melanoma; > 100 µM with M14 melanoma; 60.6 µM with NCI-H522 lung; > 100 µM with NCI-H226 lung; > 100 µM in the assay on NCI/ADR-RES ovarian.

With `CC1(C)CC23CC(C)(C)c4cccc(c42)OCc2ccc4ccc5ccc(nc5c4n2)COc2cccc1c23`, the TGI with HCC-2998 colon, with K-562 leukemia, in the assay with PC-3 prostate, with HOP-92 NSCLC, in the assay with BT-549 breast and in the assay on SNB-75 CNS was > 50 µM in each case. The TGI in the assay with UACC-257 melanoma, in the assay on M14 melanoma, with NCI-H522 lung, in the assay on NCI-H226 lung and with NCI/ADR-RES ovarian was > 50 µM in each case.
